Marks after values point to notes of the source that are not given here. Values belong to the compound of their own block, whether it stands above or below them.
Legend:
[1] = test system: Mycobacterium immunogenum (ATCC 700505); assay: High resolution MIC test, pure culture, 1/10x TSB; type: cell-based; conditions: M. immunogenum, 24 hours at 30° C.
Procedure: (§1) The lowest concentration of microbicide required to inhibit bacteria was determined by a high resolution MIC test. Varying amounts of each microbicide were added to media in a 96-well microtiter plate. The media used for the MIC tests was 10% Trypicase Soy Broth ( 1/10× TSB). […] serial dilutions were performed on a Biomek 2000 Workstation to obtain a range of closely spaced concentrations of microbicides. A cell suspension of stationary phase microorganisms, adjusted to provide 10^6 colony forming units (CFU)/mL in each well for bacteria was added to the microtiter plate. The microtiter plates were incubated for 24 hours at 30° C. for Mycobacterium immunogenum and 37° C. for Mycobacterium chelonae. The presence or absence of microbial growth was determined by measuring the turbidity in each well using a Thermomax microplate reader set at an absorbance of 650 nm. The lowest concentration of compound in which no growth was observed was considered the MIC value for the microbicide. The MIC value for each microbicide was determined from the average of four determinations for bacteria.
(§2) Bacterial strains tested included Mycobacterium chelonae (ATCC 14472) and Mycobacterium immunogenum (ATCC 700505). Mycobacterial cultures were grown overnight at 30° C. (M. immunogenum) or 37° C. (M. chelonae), in a rotary shaking bath in Middlebrook […] with Middlebrook enrichment. A 1:20 dilution of the overnight culture was made into the appropriate test media and inoculated to give a final concentration of 10^6 to 10^7 CFU/ml.

[2] = test system: Mycobacterium chelonae (ATCC 14472); assay: High resolution MIC test, pure culture, 1/10x TSB; type: cell-based; conditions: M. chelonae, 24 hours at 37° C.
Procedure: as §1, §2

[3] = test system: Mycobacterium immunogenum (ATCC 700505); assay: MBC test, transfer from MIC plates to fresh media; type: cell-based; conditions: M. immunogenum, no survivors after 2 days in fresh media
Procedure: as §2
(§3) MBC tests were conducted by transferring samples from the MIC test samples into fresh media and observing for growth of the culture. Growth was determined as above. In this test using Biomek 2000 Workstation, 10 μl samples taken from the 96-well MIC plates were placed in […] of fresh growth media to determine the number of surviving organisms for the same gradient of biocide concentrations. These plates were incubated and read in the same fashion as the MIC plates.

[4] = test system: Mycobacterium chelonae (ATCC 14472); assay: MBC test, transfer from MIC plates to fresh media; type: cell-based; conditions: M. chelonae, no survivors after 2 days in fresh media
Procedure: as §2, §3

[5] = test system: natural, resident populations of Mycobacterium; assay: Eradication of mycobacteria in naturally contaminated in-use metalworking fluids; type: cell-based; conditions: for No. of Fluids with ≧99% Kill (2-log reduction): of six fluids, 48 hours
Procedure: A comparative study was conducted evaluating six metalworking fluid biocides versus natural, resident populations of Mycobacterium from six in-use metalworking fluids. CMIT/MIT, CMIT/MIT/MCC, MIT, BIT, triazine, and PCMC microbicides were tested under controlled laboratory conditions to determine their efficacy at the maximum manufacturer's recommended dose rate (Table 2). The metalworking fluids were known to contain high levels of mycobacteria prior to dosing with biocides. Samples were then dosed with biocides, incubated with agitation at room temperature and viable mycobacteria counts determined after 48 hours by plating onto Middlebrook 7H10 medium, with Tween 80, glycerin, cyclohexamide, chloramphenicol, and gentamycin to suppress the growth of unwanted microorganisms.
The six metalworking fluid samples containing mycobacteria study from Example 7, were also tested using the same biocides with dosing at 50% of the maximum manufacturer's recommended rate (Table 2) under the same conditions. These metalworking fluids were known to contain high levels of mycobacteria prior to dosing with biocides. Samples were then dosed with biocides, incubated with agitation at room temperature and viable mycobacteria counts determined after 48 hours by plating onto Middlebrook 7H10 medium, with Tween 80, glycerin, cyclohexamide, chloramphenicol, and gentamycin to suppress the growth of unwanted microorganisms.

[6] = Stability in buffered water at various pH and temperatures (HPLC); type: physicochemical
Procedure: Biocides were added to buffer solutions and stability was tested at 22° and 50° C. using HPLC to measure biocide concentration at 0 time, 21 days, 43 days, and 88-90 days. Biocide stability was determined in the following buffer solutions: pH2, 0.01M HCl; pH6, 0.1M KH2PO4; pH8, 0.025M borate; pH10, 0.025M borate; pH12, 0.05M Na2HPO4. Biocide concentrations tested were 100 ppm MI, 200 ppm BIT, 44 ppm CMI.

[7] = Stability in high pH metalworking fluid use dilutions (HPLC); type: physicochemical; conditions: for % CMIT Remaining (without MCC) / % CMIT Remaining (with MCC): 25° C.; for % CMIT Remaining (with MCC): MCC 300 ppm
Procedure: Stability studies were conducted in three high pH metalworking fluid use dilutions to compare the persistence of MIT biocide versus CMIT biocide, tested alone and in combination with MCC). Aliquots of the use-diluted fluids were dosed with 17.5 ppm active CMIT/MIT and CMIT/MIT/MCC and stored at 25° C. Biocide concentrations were determined at time zero and weekly using high performance liquid chromatography (HPLC) analysis.

[8] = buffer, pH 9
Procedure: pH 9 buffer containing 0.069 M boric acid, 0.017 M citric acid, 0.066 M sodium phosphate was prepared in distilled water. Biocide was dosed into the pH 9 buffer solution and stored at 70° C. in a heat block. The samples were examined for active ingredient concentration at the time points after 5 hours, and 1, 3, 7, 23, 30, 35 and 56 days. Initial biocide doses were 166 ppm MI, 199 ppm BIT and 150 ppm BNPD.
The samples were evaluated for active ingredient concentration via High Pressure Liquid Chromatography. Samples were taken from the heating blocks and allowed to cool to room temperature for 30 minutes. The samples were then diluted 1:20 in deionized water by adding 9.5 ml of deionized water to 0.5 grams of the samples in a 25 ml glass sample vial. The samples were mixed for 15 seconds and transferred to HPLC sample vials for analysis.

[9] = Fluid 1, 48 hours, 50% of recommended maximum dose
[10] = Fluid 1, 48 hours, 100% of recommended maximum dose
[11] = Fluid 2, 48 hours, 50% of recommended maximum dose
[12] = Fluid 2, 48 hours, 100% of recommended maximum dose
[13] = Fluid 3, 48 hours, 50% of recommended maximum dose
[14] = Fluid 3, 48 hours, 100% of recommended maximum dose
[15] = Fluid 4, 48 hours, 50% of recommended maximum dose
[16] = Fluid 4, 48 hours, 100% of recommended maximum dose
[17] = Fluid 5, 48 hours, 50% of recommended maximum dose
[18] = Fluid 5, 48 hours, 100% of recommended maximum dose
[19] = Fluid 6, 48 hours, 50% of recommended maximum dose
[20] = Fluid 6, 48 hours, 100% of recommended maximum dose
[21] = Synthetic Fluid 2 (pH 9.4), 1 wk
[22] = Synthetic Fluid 2 (pH 9.4), 3 wk

SMILES: C1COCN1 [Oxazolidine]
- Minimum Inhibitory Concentration [1]: 38 ppm active
- Minimum Inhibitory Concentration [2]: 42 ppm active
- Minimum Biocidal Concentration [3]: 836 ppm active
- Minimum Biocidal Concentration [4]: 34 ppm active

SMILES: OCCN1CN(CCO)CN(CCO)C1 [Triazine]
- Log Reduction in Mycobacterial Counts versus Control (no biocide) [5, 9]: 0.00 log
- Log Reduction in Mycobacterial Counts versus Control (no biocide) [5, 10]: 0.00 log
- Log Reduction in Mycobacterial Counts versus Control (no biocide) [5, 11]: 0.00 log
- Log Reduction in Mycobacterial Counts versus Control (no biocide) [5, 12]: 0.12 log
- Log Reduction in Mycobacterial Counts versus Control (no biocide) [5, 13]: 0.00 log
- Log Reduction in Mycobacterial Counts versus Control (no biocide) [5, 14]: 0.00 log
- Log Reduction in Mycobacterial Counts versus Control (no biocide) [5, 15]: 0.00 log
- Log Reduction in Mycobacterial Counts versus Control (no biocide) [5, 16]: 0.00 log
- Log Reduction in Mycobacterial Counts versus Control (no biocide) [5, 17]: 0.06 log
- Log Reduction in Mycobacterial Counts versus Control (no biocide) [5, 18]: 0.00 log
- Log Reduction in Mycobacterial Counts versus Control (no biocide) [5, 19]: 0.00 log
- Log Reduction in Mycobacterial Counts versus Control (no biocide) [5, 20]: 0.00 log
- No. of Fluids with ≧99% Kill (2-log reduction) ([5]; 50% of recommended maximum dose): 0
- No. of Fluids with ≧99% Kill (2-log reduction) ([5]; 100% of recommended maximum dose): 0
- Minimum Inhibitory Concentration [1]: 39 ppm active
- Minimum Inhibitory Concentration [2]: 43 ppm active
- Minimum Biocidal Concentration [3]: 314 ppm active
- Minimum Biocidal Concentration [4]: 314 ppm active

SMILES: Cn1sc(Cl)cc1=O [CMI, 5-chloro-2-methyl-4-isothiazolin-3-one]
- Percent Remaining at: pH 2 ([6]; 22° C., day 0): 100%
- Percent Remaining at: pH 6 ([6]; 22° C., day 0): 100%
- Percent Remaining at: pH 8 ([6]; 22° C., day 0): 100%
- Percent Remaining at: pH 10 ([6]; 22° C., day 0): 100%
- Percent Remaining at: pH 12 ([6]; 22° C., day 0): 100%
- Percent Remaining at: pH 2 ([6]; 22° C., day 21): 100%
- Percent Remaining at: pH 6 ([6]; 22° C., day 21): 100%
- Percent Remaining at: pH 8 ([6]; 22° C., day 21): 100%
- Percent Remaining at: pH 10 ([6]; 22° C., day 21): 0%
- Percent Remaining at: pH 12 ([6]; 22° C., day 21): 0%
- Percent Remaining at: pH 2 ([6]; 22° C., day 43): 100%
- Percent Remaining at: pH 6 ([6]; 22° C., day 43): 100%
- Percent Remaining at: pH 8 ([6]; 22° C., day 43): 91%
- Percent Remaining at: pH 10 ([6]; 22° C., day 43): 0%
- Percent Remaining at: pH 12 ([6]; 22° C., day 43): 0%
- Percent Remaining at: pH 2 ([6]; 22° C., day 88): 100%
- Percent Remaining at: pH 6 ([6]; 22° C., day 88): 100%
- Percent Remaining at: pH 8 ([6]; 22° C., day 88): 95%
- Percent Remaining at: pH 10 ([6]; 22° C., day 88): 0%
- Percent Remaining at: pH 12 ([6]; 22° C., day 88): 0%
- Percent Remaining at: pH 2 ([6]; 50° C., day 0): 100%
- Percent Remaining at: pH 6 ([6]; 50° C., day 0): 100%
- Percent Remaining at: pH 8 ([6]; 50° C., day 0): 100%
- Percent Remaining at: pH 10 ([6]; 50° C., day 0): 100%
- Percent Remaining at: pH 12 ([6]; 50° C., day 0): 100%
- Percent Remaining at: pH 2 ([6]; 50° C., day 21): 100%
- Percent Remaining at: pH 6 ([6]; 50° C., day 21): 100%
- Percent Remaining at: pH 8 ([6]; 50° C., day 21): 15%
- Percent Remaining at: pH 10 ([6]; 50° C., day 21): 0%
- Percent Remaining at: pH 12 ([6]; 50° C., day 21): 0%
- Percent Remaining at: pH 2 ([6]; 50° C., day 43): 93%
- Percent Remaining at: pH 6 ([6]; 50° C., day 43): 65%
- Percent Remaining at: pH 8 ([6]; 50° C., day 43): 0%
- Percent Remaining at: pH 10 ([6]; 50° C., day 43): 0%
- Percent Remaining at: pH 12 ([6]; 50° C., day 43): 0%
- Percent Remaining at: pH 2 ([6]; 50° C., day 88): 100%
- Percent Remaining at: pH 6 ([6]; 50° C., day 88): 30%
- Percent Remaining at: pH 8 ([6]; 50° C., day 88): 0%
- Percent Remaining at: pH 10 ([6]; 50° C., day 88): 0%
- Percent Remaining at: pH 12 ([6]; 50° C., day 88): 0%
- % CMIT Remaining (without MCC) ([7]; Soluble Fluid 1 (pH 9.2), 2 wk): 28%
- % CMIT Remaining (with MCC) ([7]; Soluble Fluid 1 (pH 9.2), 2 wk): 38%
- % CMIT Remaining (without MCC) ([7]; Soluble Fluid 1 (pH 9.2), 4 wk): 10%
- % CMIT Remaining (with MCC) ([7]; Soluble Fluid 1 (pH 9.2), 4 wk): 18%
- % CMIT Remaining (without MCC) ([7]; Soluble Fluid 3 (pH 9.3), 2 wk): 25%
- % CMIT Remaining (with MCC) ([7]; Soluble Fluid 3 (pH 9.3), 2 wk): 35%
- % CMIT Remaining (without MCC) ([7]; Soluble Fluid 3 (pH 9.3), 4 wk): 0%
- % CMIT Remaining (with MCC) ([7]; Soluble Fluid 3 (pH 9.3), 4 wk): 16%
- % CMIT Remaining (without MCC) [7, 21]: 13%
- % CMIT Remaining (with MCC) [7, 21]: 42%
- % CMIT Remaining (without MCC) [7, 22]: 0* %
- % CMIT Remaining (with MCC) [7, 22]: 0%
- biocide remaining, CMIT with MCC ([7]; after 3-4 weeks in the three fluids, 300 ppm MCC): ≤ 16%
- biocide remaining, CMIT alone ([7]; after 3-4 weeks in the three fluids, without MCC): none remaining

SMILES: Cc1cc(O)ccc1Cl [PCMC]
- Log Reduction in Mycobacterial Counts versus Control (no biocide) [5, 9]: 0.00 log
- Log Reduction in Mycobacterial Counts versus Control (no biocide) [5, 10]: 5.88 log
- Log Reduction in Mycobacterial Counts versus Control (no biocide) [5, 11]: 1.00 log
- Log Reduction in Mycobacterial Counts versus Control (no biocide) [5, 12]: 5.00 log
- Log Reduction in Mycobacterial Counts versus Control (no biocide) [5, 13]: 0.00 log
- Log Reduction in Mycobacterial Counts versus Control (no biocide) [5, 14]: 1.00 log
- Log Reduction in Mycobacterial Counts versus Control (no biocide) [5, 15]: 5.24 log
- Log Reduction in Mycobacterial Counts versus Control (no biocide) [5, 16]: 5.24 log
- Log Reduction in Mycobacterial Counts versus Control (no biocide) [5, 17]: 0.51 log
- Log Reduction in Mycobacterial Counts versus Control (no biocide) [5, 18]: 0.90 log
- Log Reduction in Mycobacterial Counts versus Control (no biocide) [5, 19]: 3.88 log
- Log Reduction in Mycobacterial Counts versus Control (no biocide) [5, 20]: 3.88 log
- Minimum Inhibitory Concentration [1]: 35 ppm active
- Minimum Inhibitory Concentration [2]: 20 ppm active
- Minimum Biocidal Concentration [3]: 75 ppm active
- Minimum Biocidal Concentration [4]: 60 ppm active

- Percent Remaining after: 0 ([8]; 0 h): 100%
- Percent Remaining after: 5 hr ([8]; 5 h): 0%
- Percent Remaining after: 1 day ([8]; 24 h): 0%
SMILES: O=[N+]([O-])C(Br)(CO)CO [BNPD, 2-bromo-2-nitro-propane-1,3-diol]

Source: patent US7699995B2, “Water treatment method” (priority 2006, dated 2010)
